Measured values published in the supplement of paper PMC4862054.

system: HCC1143; experiment: normalised response (% of control), CellTiter-Glo; higher = more viable cells (100 = DMSO, 0 = benzethonium chloride kill control); conditions: incubation time: 72 h
Procedure, shortened: (§1)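 Normalised signals at single concentrations make up the values. They come from breast cancer cell lines seeded (20 µl suspension) into 384-well plates with compound at 5 concentrations in 10-fold steps over a compound-specific 10,000-fold range, incubated 72 h, and read for CellTox Green fluorescence then CellTiter-Glo luminescence. Each plate was normalised to 0.1 % DMSO (100) and a positive kill control (0).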

SMILES | normalised response [%]
O=S(=O)(c1cccc2cnccc12)N1CCCNCC1 [Fasudil] (5000 nM) | 96.3
Cc1cccc(-c2nn3c(c2-c2ccnc4ccc(C(N)=O)cc24)CCC3)n1 [Galunisertib] (100 nM) | 109
O=C(NC[C@H](O)CO)c1ccncc1Nc1ccc(I)cc1F [Pimasertib] (1000 nM) | 84.2
Cn1cc(CNCC2CCN(c3ncc(C(=O)NO)cn3)CC2)c2ccccc21 [Quisinostat] (100 nM) | 25.4

system: HDQ-P1; experiment: as above; conditions: incubation time: 72 h
Procedure, shortened: as §1

SMILES | normalised response [%]
CC/C(=C(\c1ccc(O)cc1)c1ccc(OCCN(C)C)cc1)c1ccccc1 [4-hydroxytamoxifen] (1000 nM) | 98.8
O=C(Nc1c[nH]nc1-c1nc2ccc(CN3CCOCC3)cc2[nH]1)NC1CC1 [AT9283] (100 nM) | 96.9
CC(=O)OC[C@H]1O[C@@H]([S-])[C@H](OC(C)=O)[C@@H](OC(C)=O)[C@@H]1OC(C)=O.CCP(CC)CC.[Au+] [Auranofin] (250 nM) | 101
O=S(=O)(c1cccc2cnccc12)N1CCCNCC1 [Fasudil] (5000 nM) | 101
Cc1cccc(-c2nn3c(c2-c2ccnc4ccc(C(N)=O)cc24)CCC3)n1 [Galunisertib] (100 nM) | 101
O=C(NC[C@H](O)CO)c1ccncc1Nc1ccc(I)cc1F [Pimasertib] (1000 nM) | 62.1
Cn1cc(CNCC2CCN(c3ncc(C(=O)NO)cn3)CC2)c2ccccc21 [Quisinostat] (100 nM) | 58.4

system: CAL-85-1; experiment: as above; conditions: incubation time: 72 h
Procedure, shortened: as §1

SMILES | normalised response [%]
CC/C(=C(\c1ccc(O)cc1)c1ccc(OCCN(C)C)cc1)c1ccccc1 [4-hydroxytamoxifen] (1000 nM) | 97.2
O=C(Nc1c[nH]nc1-c1nc2ccc(CN3CCOCC3)cc2[nH]1)NC1CC1 [AT9283] (100 nM) | 105
CC(=O)OC[C@H]1O[C@@H]([S-])[C@H](OC(C)=O)[C@@H](OC(C)=O)[C@@H]1OC(C)=O.CCP(CC)CC.[Au+] [Auranofin] (250 nM) | 93.2
O=S(=O)(c1cccc2cnccc12)N1CCCNCC1 [Fasudil] (5000 nM) | 122
Cc1cccc(-c2nn3c(c2-c2ccnc4ccc(C(N)=O)cc24)CCC3)n1 [Galunisertib] (100 nM) | 104
O=C(NC[C@H](O)CO)c1ccncc1Nc1ccc(I)cc1F [Pimasertib] (1000 nM) | 61.9
Cn1cc(CNCC2CCN(c3ncc(C(=O)NO)cn3)CC2)c2ccccc21 [Quisinostat] (100 nM) | 29.5

system: CAL-120; experiment: as above; conditions: incubation time: 72 h
Procedure, shortened: as §1

SMILES | normalised response [%]
CC/C(=C(\c1ccc(O)cc1)c1ccc(OCCN(C)C)cc1)c1ccccc1 [4-hydroxytamoxifen] (1000 nM) | 92.5
O=C(Nc1c[nH]nc1-c1nc2ccc(CN3CCOCC3)cc2[nH]1)NC1CC1 [AT9283] (100 nM) | 85
CC(=O)OC[C@H]1O[C@@H]([S-])[C@H](OC(C)=O)[C@@H](OC(C)=O)[C@@H]1OC(C)=O.CCP(CC)CC.[Au+] [Auranofin] (250 nM) | 99.4
O=S(=O)(c1cccc2cnccc12)N1CCCNCC1 [Fasudil] (5000 nM) | 89.4
Cc1cccc(-c2nn3c(c2-c2ccnc4ccc(C(N)=O)cc24)CCC3)n1 [Galunisertib] (100 nM) | 104
O=C(NC[C@H](O)CO)c1ccncc1Nc1ccc(I)cc1F [Pimasertib] (1000 nM) | 73.6
Cn1cc(CNCC2CCN(c3ncc(C(=O)NO)cn3)CC2)c2ccccc21 [Quisinostat] (100 nM) | 44.5

system: BT-474; experiment: as above; conditions: incubation time: 72 h
Procedure, shortened: as §1

SMILES | normalised response [%]
CC/C(=C(\c1ccc(O)cc1)c1ccc(OCCN(C)C)cc1)c1ccccc1 [4-hydroxytamoxifen] (1000 nM) | 101
O=C(Nc1c[nH]nc1-c1nc2ccc(CN3CCOCC3)cc2[nH]1)NC1CC1 [AT9283] (100 nM) | 73.8
CC(=O)OC[C@H]1O[C@@H]([S-])[C@H](OC(C)=O)[C@@H](OC(C)=O)[C@@H]1OC(C)=O.CCP(CC)CC.[Au+] [Auranofin] (250 nM) | 99
O=S(=O)(c1cccc2cnccc12)N1CCCNCC1 [Fasudil] (5000 nM) | 96.5
Cc1cccc(-c2nn3c(c2-c2ccnc4ccc(C(N)=O)cc24)CCC3)n1 [Galunisertib] (100 nM) | 104
O=C(NC[C@H](O)CO)c1ccncc1Nc1ccc(I)cc1F [Pimasertib] (1000 nM) | 69.8
Cn1cc(CNCC2CCN(c3ncc(C(=O)NO)cn3)CC2)c2ccccc21 [Quisinostat] (100 nM) | 25.3

system: HCC1599; experiment: as above; conditions: incubation time: 72 h
Procedure, shortened: as §1

SMILES | normalised response [%]
CC/C(=C(\c1ccc(O)cc1)c1ccc(OCCN(C)C)cc1)c1ccccc1 [4-hydroxytamoxifen] (1000 nM) | 105
O=C(Nc1c[nH]nc1-c1nc2ccc(CN3CCOCC3)cc2[nH]1)NC1CC1 [AT9283] (100 nM) | 102
CC(=O)OC[C@H]1O[C@@H]([S-])[C@H](OC(C)=O)[C@@H](OC(C)=O)[C@@H]1OC(C)=O.CCP(CC)CC.[Au+] [Auranofin] (250 nM) | 112
O=S(=O)(c1cccc2cnccc12)N1CCCNCC1 [Fasudil] (5000 nM) | 101
Cc1cccc(-c2nn3c(c2-c2ccnc4ccc(C(N)=O)cc24)CCC3)n1 [Galunisertib] (100 nM) | 109
O=C(NC[C@H](O)CO)c1ccncc1Nc1ccc(I)cc1F [Pimasertib] (1000 nM) | 91.6
Cn1cc(CNCC2CCN(c3ncc(C(=O)NO)cn3)CC2)c2ccccc21 [Quisinostat] (100 nM) | 42.1

system: BT-549; experiment: as above; conditions: incubation time: 72 h
Procedure, shortened: as §1

SMILES | normalised response [%]
CC/C(=C(\c1ccc(O)cc1)c1ccc(OCCN(C)C)cc1)c1ccccc1 [4-hydroxytamoxifen] (1000 nM) | 93.6
O=C(Nc1c[nH]nc1-c1nc2ccc(CN3CCOCC3)cc2[nH]1)NC1CC1 [AT9283] (100 nM) | 82.1
CC(=O)OC[C@H]1O[C@@H]([S-])[C@H](OC(C)=O)[C@@H](OC(C)=O)[C@@H]1OC(C)=O.CCP(CC)CC.[Au+] [Auranofin] (250 nM) | 68.9
O=S(=O)(c1cccc2cnccc12)N1CCCNCC1 [Fasudil] (5000 nM) | 95.9
Cc1cccc(-c2nn3c(c2-c2ccnc4ccc(C(N)=O)cc24)CCC3)n1 [Galunisertib] (100 nM) | 94.3
O=C(NC[C@H](O)CO)c1ccncc1Nc1ccc(I)cc1F [Pimasertib] (1000 nM) | 96.1
Cn1cc(CNCC2CCN(c3ncc(C(=O)NO)cn3)CC2)c2ccccc21 [Quisinostat] (100 nM) | 46.1

system: MFM-223; experiment: as above; conditions: incubation time: 72 h
Procedure, shortened: as §1

SMILES | normalised response [%]
CC/C(=C(\c1ccc(O)cc1)c1ccc(OCCN(C)C)cc1)c1ccccc1 [4-hydroxytamoxifen] (1000 nM) | 95.6
O=C(Nc1c[nH]nc1-c1nc2ccc(CN3CCOCC3)cc2[nH]1)NC1CC1 [AT9283] (100 nM) | 89.2
CC(=O)OC[C@H]1O[C@@H]([S-])[C@H](OC(C)=O)[C@@H](OC(C)=O)[C@@H]1OC(C)=O.CCP(CC)CC.[Au+] [Auranofin] (250 nM) | 98.5
O=S(=O)(c1cccc2cnccc12)N1CCCNCC1 [Fasudil] (5000 nM) | 102
Cc1cccc(-c2nn3c(c2-c2ccnc4ccc(C(N)=O)cc24)CCC3)n1 [Galunisertib] (100 nM) | 107
O=C(NC[C@H](O)CO)c1ccncc1Nc1ccc(I)cc1F [Pimasertib] (1000 nM) | 94
Cn1cc(CNCC2CCN(c3ncc(C(=O)NO)cn3)CC2)c2ccccc21 [Quisinostat] (100 nM) | 52.5

system: MCF-10A; experiment: as above; conditions: incubation time: 72 h
Procedure, shortened: as §1

SMILES | normalised response [%]
CC/C(=C(\c1ccc(O)cc1)c1ccc(OCCN(C)C)cc1)c1ccccc1 [4-hydroxytamoxifen] (1000 nM) | 98.8
O=C(Nc1c[nH]nc1-c1nc2ccc(CN3CCOCC3)cc2[nH]1)NC1CC1 [AT9283] (100 nM) | 71.8
CC(=O)OC[C@H]1O[C@@H]([S-])[C@H](OC(C)=O)[C@@H](OC(C)=O)[C@@H]1OC(C)=O.CCP(CC)CC.[Au+] [Auranofin] (250 nM) | 118
O=S(=O)(c1cccc2cnccc12)N1CCCNCC1 [Fasudil] (5000 nM) | 89
Cc1cccc(-c2nn3c(c2-c2ccnc4ccc(C(N)=O)cc24)CCC3)n1 [Galunisertib] (100 nM) | 109
O=C(NC[C@H](O)CO)c1ccncc1Nc1ccc(I)cc1F [Pimasertib] (1000 nM) | 31.2
Cn1cc(CNCC2CCN(c3ncc(C(=O)NO)cn3)CC2)c2ccccc21 [Quisinostat] (100 nM) | 51.6

system: CAL-51; experiment: as above; conditions: incubation time: 72 h
Procedure, shortened: as §1

SMILES | normalised response [%]
CC/C(=C(\c1ccc(O)cc1)c1ccc(OCCN(C)C)cc1)c1ccccc1 [4-hydroxytamoxifen] (1000 nM) | 102
O=C(Nc1c[nH]nc1-c1nc2ccc(CN3CCOCC3)cc2[nH]1)NC1CC1 [AT9283] (100 nM) | 69
CC(=O)OC[C@H]1O[C@@H]([S-])[C@H](OC(C)=O)[C@@H](OC(C)=O)[C@@H]1OC(C)=O.CCP(CC)CC.[Au+] [Auranofin] (250 nM) | 46.3
O=S(=O)(c1cccc2cnccc12)N1CCCNCC1 [Fasudil] (5000 nM) | 94.9
Cc1cccc(-c2nn3c(c2-c2ccnc4ccc(C(N)=O)cc24)CCC3)n1 [Galunisertib] (100 nM) | 88.5
